# Source: article PMC11178787, “Development of a natural product optimization strategy for inhibitors against MraY, a promising antibacterial target” (Nature Communications, 2024)
# Experiments:
# [1] = test system: T1, P. aeruginosa ATCC 27853; assay: microbe, parasite or virus in culture; conditions: Pseudomonas aeruginosa, ATCC27853
# T1 construct: ATCC 27853
# [2] = test system: T2, K. pneumoniae ATCC 13883; assay: microbe, parasite or virus in culture; conditions: Klebsiella pneumoniae, ATCC13883
# T2 construct: ATCC 13883
Structure (SMILES),MIC [1] [µM],MIC [2] [µM]
CC1(C)S[C@@H]2[C@H](NC(=O)[C@H](N)c3ccccc3)C(=O)N2[C@H]1C(=O)O [ampicillin],> 50,> 50
CN[C@H](CC(C)C)C(=O)N[C@H]1C(=O)N[C@@H](CC(N)=O)C(=O)N[C@H]2C(=O)N[C@H]3C(=O)N[C@H](C(=O)N[C@H](C(=O)O)c4cc(O)cc(O)c4-c4cc3ccc4O)[C@H](O)c3ccc(c(Cl)c3)Oc3cc2cc(c3O[C@@H]2O[C@H](CO)[C@@H](O)[C@H](O)[C@H]2O[C@H]2C[C@](C)(N)[C@H](O)[C@H](C)O2)Oc2ccc(cc2Cl)[C@H]1O [vancomycin],> 50,> 50
